Reference: patent EP2977042B1, “OLOPATADINE FORMULATIONS FOR TOPICAL NASAL ADMINISTRATION” (Novartis AG, priority 2007, dated 2008)
Where a name gives a salt, the structure may show the parent alone.

Tests used:
Assay type in all cases: physicochemical
[1] = Dissolution rate of olopatadine hydrochloride in a nasal formulation containing 0.01% EDTA and 0.01% BAC, effect of NaCl and Na2HPO4 concentrations
Description: The effect of NaCl and Na2HPO4 concentrations on the dissolution rate of olopatadine hydrochloride in a nasal formulation containing 0.01% EDTA and 0.01% BAC was determined. The aqueous solubility of olopatadine HCl decreases with increasing concentration of NaCl. However, increasing phosphate buffer correlates with increased aqueous solubility of olopatadine HCl in the presence of NaCl.

[2] = Visual observation of composition clarity during compounding
Description: An exemplary compounding procedure for the nasal composition shown in Table 1 is described as below. • 1. Tare a suitable compounding vessel with magnetic stir bar. Add approximately 80% of the batch weight of purified water. • 2. While stirring, add dibasic sodium phosphate (anhydrous), sodium chloride, edetate disodium, benzalkonium chloride and olopatadine HCl. • 3. Add equivalent to approximately 0.55 g, 6N hydrochloric acid per 100 ml batch. • 4. Allow adequate time between each addition for dissolution of each ingredient • 5. Add purified water to approximately 90% of final batch weight. • 6. Measure pH and adjust, if necessary, to 3.7 with 6N (and/or 1N) hydrochloric acid and 1N sodium hydroxide. • 7. Adjust to final batch weight with purified water (QS). • 8. Measure final pH. • 9. Filter through 0.2 µm filtration membrane. The two compositions shown in Table 2 below were prepared using the procedure described in Example 1 and visual observations of the compositions clarity were made at different points during the compounding procedure. […] In each case, visual observations relating to the composition's clarity were recorded. […] Visual observations of the clarity of each composition were recorded as each composition was prepared.

[3] = Acid-base equilibrium (pKa values) of olopatadine
Text: Olopatadine has both a carboxylic functional group (pKa1 = 4.18) and a tertiary amino group (pKa2 = 9.79). It exists in different ionic forms depending upon the pH of the solution. Olopatadine exists predominantly as a zwitterion in the pH range between the two pKa values with a negatively-charged carboxylic group and a positively-charged tertiary amino group. The isoelectric point of the olopatadine zwitterion is at pH 6.99. At a pH lower than pKa1, cationic olopatadine (with ionized tertiary amino group) is dominant. At a pH higher than pKa2, anionic olopatadine (with ionized carboxylic group) is dominant.

[4] = Dissolution rate of olopatadine hydrochloride in water, effect of NaCl and Na2HPO4
Description: The effect of NaCl on the dissolution rate of olopatadine hydrochloride in water was determined.

Compound	aqueous solubility ([1]; with increasing concentration of NaCl)	aqueous solubility ([1]; with increasing phosphate buffer, in the presence of NaCl)	solubility of 0.665% olopatadine hydrochloride in the tested nasal vehicle ([2]; without a phosphate salt)	dissolution of 0.665% olopatadine hydrochloride in water ([2]; without phosphate buffer, in the presence of 0.7% NaCl, pH as low as 3.6, compounding procedure of Example 1)	pKa1 ([3]; carboxylic functional group)	isoelectric point of the olopatadine zwitterion ([3]; given as pH)	pKa2 ([3]; tertiary amino group)	effect of NaCl on the rate of dissolution ([4]; in water)	effect of addition of Na2HPO4 on dissolution ([4]; in water with NaCl)	time for complete dissolution of 0.6% olopatadine solution ([4]; in water with NaCl, with Na2HPO4)	time for complete dissolution of 0.6% olopatadine solution ([4]; in water with NaCl, without Na2HPO4, assuming the entire amount would eventually dissolve)
CN(C)CC/C=C1/c2ccccc2COc2ccc(CC(=O)O)cc21 [olopatadine HCl, (Z)-11-(3-dimethylaminopropylidene)-6,11-dihydro-dibenz-[b,e]oxepin-2-acetic acid]	decreases	increased	not soluble	did not completely dissolve	–	–	–	–	–	–	–
CN(C)CC/C=C1/c2ccccc2COc2ccc(CC(=O)O)cc21 [olopatadine, Z-11-(3-dimethylaminopropylidene)-6, 11-dihydrodibenz[b,e]oxepine-2-acetic acid]	–	–	–	–	4.18	6.99	9.79	significant reduction	dramatically improved	less than one	at least several hours
